Test system: psoriasin
Experiment: Generation of psoriasin (AMP marker) by human keratinocytes, ELISA of cell culture supernatant
Format: cell-based
Details: NHEK cells, 72 hours; for Fold change in psoriasin levels over control: control (Example A) = 1
Method: The experiment was done with the above-mentioned cells with passage between 3 and 4. The cells were seeded (35,000 cells/well) in 24 well plate with keratinocyte growth media (KGM) obtained from Invitrogen®. The plate was then incubated at 37±2° C. in a CO2 incubator for 48 hours. Step 2: After 48 hours of incubation, cell differentiation was induced by replacing media with fresh KGM supplemented with 2 mM calcium chloride solution. This was then followed by incubation at 37±2° C. in a CO2 incubator for 48 hours. Step 3: After that, the cells were treated with niacinamide and the compound of formula I, i.e. N-cyclopropyl nicotinamide, in varying concentration as outlined in table 1 below with keratinocyte growth media supplemented with 2 mM calcium chloride solution. Step 4: After the above treatment, cells were again incubated at 37±2° C. in a CO2 incubator for 72 hours. Step 5: After 72 hours of incubation, cell culture supernatant from each well was collected in a sterile tube. The samples were then stored at −80° C. until used for testing psoriasin secretion by standard ELISA technique using psoriasin ELISA kit obtained from Circulx® (No: CY-8073). In the current experiment, psoriasin was used as a marker for AMP. Step 6: The ELISA method was performed by using 100 μL of cell culture supernatant from each sample. The data is expressed in terms of fold change over control (no treatment: Example A). The fold change in psoriasin levels in case of control (example A) is taken to be equal to 1 fold. Any fold change in psoriasin obtained due to treatments outlined in all the other examples was over and above the 1 fold change obtained from the control.

Structure (SMILES) | Fold change in psoriasin levels over control (100 μg/mL active) | Fold change in psoriasin levels over control (250 μg/mL active) | Fold change in psoriasin levels over control (500 μg/mL active) | Fold change in psoriasin over and above 1 fold of the control (100 μg/mL active)
O=C(NC1CC1)c1cccnc1 [Example 1, N-cyclopropyl nicotinamide] | 1.61 fold | 1.88 fold | 2.16 fold | –
NC(=O)c1cccnc1 [Example B, Niacinamide] | 1.26 fold | 1.50 fold | 1.44 fold | 0.26 fold

Reference: patent US11793741B2, “Topical composition” (Conopco, Inc., priority 2017, dated 2023)
